Source: patent EP1801112A1, “Bicyclic pyrimidines and bicyclic 3,4-dihydropyrimidines as inhibitors of cellular proliferation” (Warner-Lambert Company LLC, priority 1998, dated 1999)
Where two headings read alike, the source gives them in different places.

Key:
cdk4/D = cdk4/D (Homo sapiens, UniProt P11802); assay: Cyclin-Dependent Kinase 4 (cdk4) Assay; type: biochemical
[1] = biological target: T1, PDGF-β receptor tyrosine kinase (Mus musculus, UniProt P05622); assay: PDGF Receptor Tyrosine Kinase Assay; type: biochemical; settings: glutamate-tyrosine co-polymer substrate, 50 µM ATP
T1 construct: amplify a fragment of DNA that codes for the intracellular tyrosine kinase domain; made in house; host or cells: SF9 insect cells (baculovirus); crude cell lysate used
T1 sequence (P05622 599-961 limits assumed): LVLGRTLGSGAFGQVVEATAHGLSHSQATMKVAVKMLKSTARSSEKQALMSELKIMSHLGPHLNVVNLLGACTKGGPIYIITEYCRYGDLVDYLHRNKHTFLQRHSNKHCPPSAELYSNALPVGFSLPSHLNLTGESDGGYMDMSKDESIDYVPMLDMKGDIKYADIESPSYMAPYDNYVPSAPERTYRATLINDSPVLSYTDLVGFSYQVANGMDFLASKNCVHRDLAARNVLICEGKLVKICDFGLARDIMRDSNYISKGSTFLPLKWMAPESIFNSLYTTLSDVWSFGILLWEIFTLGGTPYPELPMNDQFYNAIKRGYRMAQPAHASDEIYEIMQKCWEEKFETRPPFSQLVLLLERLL
Excerpt: PDGF and FGF Receptor Tyrosine Kinase Assays
Full-length cDNAs for the mouse PDGF-β and human FGF-1 (flg) receptor tyrosine kinases were obtained from J. Escobedo and prepared as described in J. Biol. Chem., 1991;262:1482-1487. PCR primers were designed to amplify a fragment of DNA that codes for the intracellular tyrosine kinase domain. The fragment was inserted into a baculovirus vector, cotransfected with AcMNPV DNA, and the recombinant virus isolated. SF9 insect cells were infected with the virus to overexpress the protein, and the cell lysate was used for the assay. Assays were performed in 96-well plates (100 µL/incubation/well), and conditions were optimized to measure the incorporation of ^32P from γ^32P-ATP into a glutamate-tyrosine co-polymer substrate. Briefly, to each well was added 82.5 µL of incubation buffer containing 25 mM Hepes (pH 7.0), 150 mM NaCl, 0.1% Triton X-100, 0.2 mM PMSF, 0.2 mM Na3VO4, 10 mM MnCl2, and 750 µg/mL of Poly (4:1) glutamate-tyrosine followed by […] of inhibitor and 5 µL of enzyme lysate (7.5 µg/µL FGF-TK or 6.0 µg/µL PDGF-TK) to initiate the reaction. Following a 10 minute incubation at 25°C, […] of γ^32P-ATP (0.4 µCi plus 50 µM ATP) was added to each well, and samples were incubated for an additional 10 minutes at 25°C. The reaction was terminated by the addition of 100 µL of 30% trichloroacetic acid (TCA) containing 20 mM sodium pyrophosphate and precipitation of material onto glass fiber mats (Wallac). Filters were washed three times with 15% TCA containing 100 mM sodium pyrophosphate, and the radioactivity retained on the filters counted in a Wallac 1250 Betaplate reader. Nonspecific activity was defined as radioactivity retained on the filters following incubation of samples with buffer alone (no enzyme). Specific enzymatic activity (enzyme plus buffer) was defined as total activity minus nonspecific activity. […]

cdk2/cyclinA = cdk2/cyclinA (Homo sapiens, UniProt P24941); assay: Cyclin-Dependent Kinase Assay cdk2/cyclinA; type: biochemical
c-Src = biological target: T2, c-Src (Homo sapiens, UniProt P12931); assay: c-Src protein kinase assay; type: biochemical; settings: poly GluTyr substrate, 5 µM ATP
T2 construct: made in house; host or cells: baculovirus infected insect cells
T2 sequence (P12931 whole entry): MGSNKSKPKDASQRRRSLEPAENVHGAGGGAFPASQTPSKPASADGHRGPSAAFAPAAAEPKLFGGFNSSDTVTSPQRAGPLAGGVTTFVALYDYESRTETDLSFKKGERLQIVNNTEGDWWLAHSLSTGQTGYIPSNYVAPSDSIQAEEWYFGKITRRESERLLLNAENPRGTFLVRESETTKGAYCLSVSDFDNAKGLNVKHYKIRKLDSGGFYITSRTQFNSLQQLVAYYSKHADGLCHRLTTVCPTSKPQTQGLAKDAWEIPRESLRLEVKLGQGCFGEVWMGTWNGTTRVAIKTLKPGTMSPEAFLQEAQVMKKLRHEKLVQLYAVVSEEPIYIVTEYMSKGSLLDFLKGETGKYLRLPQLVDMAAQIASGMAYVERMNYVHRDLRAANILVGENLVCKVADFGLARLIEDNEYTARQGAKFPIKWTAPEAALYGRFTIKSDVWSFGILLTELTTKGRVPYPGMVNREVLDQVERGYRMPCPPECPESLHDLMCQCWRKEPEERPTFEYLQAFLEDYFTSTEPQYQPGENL
Method: The assay was carried out as follows: c-Src kinase was purified from baculovirus infected insect cell lysates using an antipeptide monoclonal antibody directed against the N-terminal amino acids (amino acids 2-17) of c-Src. The antibody, covalently linked to 0.65 µm latex beads, was added to a suspension of insect cell lysis buffer comprised of 150 mM NaCl, 50 mM Tris pH 7.5, 1 mM DTT, 1% NP-40, 2 mM EGTA, 1 mM sodium vanadate, 1 mM PMSF, 1 µg/mL each of leupeptin, pepstatin, and aprotinin. Insect cell lysate containing c-Src protein was incubated with these beads for 3 to 4 hours at 4°C with rotation. At the end of the lysate incubation, the beads were rinsed three times in lysis buffer, resuspended in lysis buffer containing 10% glycerol, and frozen. These latex beads were thawed, rinsed three times in assay buffer (40 mM Tris, pH 7.5, […]) and suspended in the same buffer. In a Millipore 96-well plate with a 0.65 µm polyvinylidine membrane bottom were added the reaction components: 10 µL c-Src beads, 10 µL of 2.5 mg/mL poly GluTyr substrate, 5 µM ATP containing 0.2 µCi labeled ^32P-ATP, 5 µL DMSO containing inhibitors or as a solvent control, and buffer to make the final volume 125 µL. The reaction was started at room temperature by addition of the ATP and quenched 10 minutes later by the addition of 125 µL of 30% TCA, 0.1 M sodium pyrophosphate for 5 minutes on ice. […] The filters were then punched, counted in a liquid scintillation counter, and the data examined for inhibitory activity in comparison to a known inhibitor such as erbstatin. […]

cdk2/cyclinE = cdk2/cyclinE (Homo sapiens, UniProt P24941); assay: Cyclin-Dependent Kinase Assay cdk2/cyclinE; type: biochemical
cdc2/cyclinB = cdc2/cyclinB (Homo sapiens, UniProt P06493); assay: Cyclin-Dependent Kinase Assay cdc2/cyclinB; type: biochemical
Chain of cdc2/cyclinB (P06493 whole entry): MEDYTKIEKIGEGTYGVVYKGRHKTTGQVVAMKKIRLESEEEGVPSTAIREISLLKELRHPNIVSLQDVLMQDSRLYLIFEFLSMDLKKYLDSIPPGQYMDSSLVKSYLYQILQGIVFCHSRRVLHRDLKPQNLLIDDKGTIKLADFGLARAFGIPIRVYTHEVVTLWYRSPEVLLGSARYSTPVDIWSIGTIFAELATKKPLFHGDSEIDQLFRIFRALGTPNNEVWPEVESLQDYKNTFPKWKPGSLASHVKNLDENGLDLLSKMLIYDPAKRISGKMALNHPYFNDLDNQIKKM
Chain of cdc2/cyclinB (P14635 whole entry, further chain): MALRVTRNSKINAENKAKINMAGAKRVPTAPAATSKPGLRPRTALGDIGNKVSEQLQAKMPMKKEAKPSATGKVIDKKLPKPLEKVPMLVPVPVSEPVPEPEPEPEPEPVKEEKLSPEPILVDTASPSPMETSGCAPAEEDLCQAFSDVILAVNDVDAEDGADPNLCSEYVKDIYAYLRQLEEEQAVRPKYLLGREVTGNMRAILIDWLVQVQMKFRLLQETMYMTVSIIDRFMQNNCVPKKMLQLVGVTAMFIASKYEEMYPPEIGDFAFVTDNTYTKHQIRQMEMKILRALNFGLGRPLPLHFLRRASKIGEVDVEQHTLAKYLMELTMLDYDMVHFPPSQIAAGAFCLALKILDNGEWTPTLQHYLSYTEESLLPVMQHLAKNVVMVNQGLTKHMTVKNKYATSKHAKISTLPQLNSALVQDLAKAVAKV

[2] = biological target: T3, FGF-1 (flg) receptor tyrosine kinase (Homo sapiens, UniProt P11362); assay: FGF Receptor Tyrosine Kinase Assay; type: biochemical; settings: glutamate-tyrosine co-polymer substrate, 50 µM ATP
T3 construct: amplify a fragment of DNA that codes for the intracellular tyrosine kinase domain; made in house; host or cells: SF9 insect cells (baculovirus); crude cell lysate used
T3 sequence (P11362 478-767 limits assumed): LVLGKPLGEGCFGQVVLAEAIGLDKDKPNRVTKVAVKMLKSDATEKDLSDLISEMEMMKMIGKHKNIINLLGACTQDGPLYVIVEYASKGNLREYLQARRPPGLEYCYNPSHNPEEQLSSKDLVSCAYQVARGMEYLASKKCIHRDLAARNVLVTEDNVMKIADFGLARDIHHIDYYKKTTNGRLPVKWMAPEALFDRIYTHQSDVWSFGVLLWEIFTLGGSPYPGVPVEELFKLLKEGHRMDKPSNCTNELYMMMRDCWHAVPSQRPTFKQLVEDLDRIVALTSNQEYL

[3] = tested on: human umbilical vein endothelial cells; assay: Human Umbilical Vein Endothelial Cell (HUVEC) Proliferation Assay; type: cell-based; settings: 96 h, four days incubation, Sulphorhodamine B staining
Method: The compounds of Formula I are useful for treating cell proliferative disorders concerning angiogenesis and have been evaluated in a human umbilical vein endothelial cell in vitro assay. The assay described below is used to determine the anti-proliferative effects of the invention compounds on human umbilical vein endothelial cells, and the results are shown in Table 7.
Human Umbilical Vein Endothelial Cell (HUVEC) Proliferation Assay
Ninety-six well tissue culture plates are seeded with 100 µL of cells in all wells of rows A->G with row H remaining empty as a blank. HUVEC (Clonetics, San Diego, CA) are grown in endothelial growth medium (EGM media, Clonetics), containing 2% fetal bovine serum. The cell seed density for HUVEC cells is 20,000 per mL. C6 cells (ATCC Cat. No. CCL-107) are seeded at 6000 per mL in F10 medium (nutrient mixture Hemes) supplemented with 15% horse serum, 2.5% fetal bovine serum, and 6.0 mL 200 mM Glutamine per 600 mL medium. A90 cells (Suny, Buffalo, NY) are also seeded at 6000 per mL, but they are grown in RPMI 1640 (Roswell Park Memorial Institute) plus 10% fetal bovine serum. Unless noted otherwise, tissue culture media and components are from GIBCO. The cells are allowed to incubate at 37°C, 5% CO2, and 100% relative humidity for 16-24 hours.
Invention compounds are prepared by dissolving them in DMSO at a concentration of 5 mM, followed by dilution to 50 µM in EGM media. One hundred microliters of the compounds are applied to duplicate wells in column 1 of the previously prepared cell plates. Column 1 row H receives 100 µL of EGM media. The compounds in column 1 are diluted across the plates using serial twofold dilutions.
The plates are incubated as above for an additional four days before being stained with Sulphorhodamine B. Staining is performed as follows: The media is removed from the plates, and the cells are fixed using 10% trichloroacetic acid for 30 minutes at 4°C. Following fixation, the plates are washed five times with distilled water after which 100 µL of Sulphorhodamine B is added to each well. Sulphorhodamine B is dissolved in 1% acetic acid to a concentration of .075%. Following staining, excess stain is removed from the wells, and the plates are washed four times with 1% acetic acid. The plates are allowed to air dry before the bound dye is solubilized in 100 µL of 10 mM unbuffered TRIS base. Absorbance is measured on a 96 well plate reader at […] using a reference filter wavelength of 630 nm. […] Sulphorhodamine B and TRIS are from Sigma Chemical Company. Acetic acid and trichloroacetic acid are from Mallinckrodt AR.

[4] = 25 µM ATP, retinoblastoma substrate, read-out: IC50 (µM) cdk4/D
[5] = retinoblastoma substrate, read-out: IC50 (µM) cdk2/A
[6] = retinoblastoma substrate, read-out: IC50 (µM) cdk2/E
[7] = retinoblastoma substrate, read-out: IC50 (µM) cdkl/B

Chain of cdk4/D (P11802 whole entry): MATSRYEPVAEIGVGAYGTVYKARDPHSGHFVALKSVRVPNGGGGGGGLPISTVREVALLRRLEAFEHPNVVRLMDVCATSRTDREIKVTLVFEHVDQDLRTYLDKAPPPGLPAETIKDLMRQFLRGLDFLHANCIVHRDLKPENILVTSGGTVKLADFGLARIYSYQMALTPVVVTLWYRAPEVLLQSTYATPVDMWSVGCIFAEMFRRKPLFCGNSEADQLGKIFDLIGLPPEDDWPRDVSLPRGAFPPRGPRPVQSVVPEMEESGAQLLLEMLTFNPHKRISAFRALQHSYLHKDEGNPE
Chain of cdk4/D (P24385 whole entry, further chain): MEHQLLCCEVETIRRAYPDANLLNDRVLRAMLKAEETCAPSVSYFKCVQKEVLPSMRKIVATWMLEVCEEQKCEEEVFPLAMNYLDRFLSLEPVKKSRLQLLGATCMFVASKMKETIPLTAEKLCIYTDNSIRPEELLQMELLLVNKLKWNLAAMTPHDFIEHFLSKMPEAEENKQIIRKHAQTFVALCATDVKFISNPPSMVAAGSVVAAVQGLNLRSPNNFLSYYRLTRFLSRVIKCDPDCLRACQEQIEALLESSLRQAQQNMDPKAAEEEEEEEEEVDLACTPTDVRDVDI

| SMILES | IC50 (cdk4/D; [4]) | IC50 [1] | IC50 (cdk2/cyclinA; [5]) | IC50 (c-Src) | IC50 (cdk2/cyclinE; [6]) | IC50 (cdc2/cyclinB; [7]) | IC50 [2] | IC50 (cdk4/D) | IC50 (cdk2/cyclinA) | IC50 (cdk2/cyclinE) | IC50 (cdc2/cyclinB) | IC50 [3] |
| --- | --- | --- | --- | --- | --- | --- | --- | --- | --- | --- | --- | --- |
| CN1CCN(c2ccc(Nc3ncc4c(n3)N(C3CCCC3)C(=O)NC4)cc2)CC1 [Example 11, 1-Cyclopentyl-7-[4-(4-methylpiperazin-1-yl)phenylamino]-3,4-dihydropyrimido[4,5-d]pyrimidin-2(1H)-one] | 0.039 µM | 0.175 µM | 0.76 µM | 710 nM | 2.12 µM | 11.6 µM | 0.023 µM | – | – | – | – | – |
| CN1CCN(c2ccc(Nc3ncc4cnc(=O)n(C5CCCC5)c4n3)cc2)CC1 [Example 32, 1-Cyclopentyl-7-[4-(4-methylpiperazin-1-yl)phenylamino]pyrimido-[4,5-d]pyrimidin-2(1H)-one] | 0.05 µM | 1.63 µM | 0.83 µM | 3950 nM | 1.38 µM | 7.51 µM | 0.37 µM | – | – | – | – | – |
| O=c1ncc2cnc(Nc3ccc(N4CCCC(O)C4)cc3)nc2n1C1CCCC1 (stereo not drawn) [Example 35, 1-Cyclopentyl-7-[4-(3-hydroxypiperidin-1-yl)phenylamino]pyrimido[4,5-d]-pyrimidin-2(1H)-one] | – | 2.8 µM | – | 4650 nM | – | – | 3.49 µM | 0.082 µM | 0.99 µM | 1.05 µM | 8.54 µM | – |
| O=c1ncc2cnc(Nc3ccc(N4CCC(CCN5CCOCC5)CC4)cc3)nc2n1C1CCCC1 [Example 39] | – | 3.76 µM | – | 3230 nM | – | – | – | 0.3 µM | 1.44 µM | 1.85 µM | 24.6 µM | – |
| CC(C)n1c(=O)ncc2cnc(Nc3ccc(N4CCC(N(C)C)CC4)cc3)nc21 [Example 41, 7-{4-[4-(Dimethylamino)piperidin-1-yl]phenylamino}-1-isopropyl-pyrimido[4,5-d]pyrimidin-2(1H)-one] | – | > 50 µM | – | 3060 nM | – | – | 11.7 µM | – | 14.8 µM | > 40 µM | > 40 µM | – |
| CCN(CC)CCCCNc1ncc2c(n1)N(CC)C(=O)N(c1cc(OC)cc(OC)c1)C2 [Example 53, 7-(4-Diethylamino-butylamino)-3-(3,5-dimethoxy-phenyl)-1-ethyl-3,4-dihydro-pyrimido[4,5-d]pyrimidin-2(1H)-one] | – | 5 µM | – | – | – | – | 0.06 µM | – | – | – | – | 192 nM |
